# Data taken from the NIST ThermoML archive (doi:10.1021/je900550v).
# ± gives the expanded uncertainty stated by the source.
# Details: 101.33 kPa, Liquid; for speed of sound: Pulse-echo method; for mass density: Vibrating tube method
smiles,measurement,setting,value
CC(C)C(=O)[O-].C[NH2+]CCO [2-hydroxy-N-methylethanaminium isobutyrate],speed of sound,308.15 K,1583.1 ± 2.1 m/s
same,mass density,308.15 K,1036.92 ± 2.2 kg/m3
same,speed of sound,308.4 K,1582.4 ± 2.1 m/s
same,mass density,308.4 K,1036.77 ± 2.2 kg/m3
same,speed of sound,308.65 K,1581.7 ± 2.1 m/s
same,mass density,308.65 K,1036.6 ± 2.2 kg/m3
same,speed of sound,308.9 K,1581 ± 2.1 m/s
same,mass density,308.9 K,1036.44 ± 2.2 kg/m3
same,speed of sound,309.15 K,1580.3 ± 2.1 m/s
same,mass density,309.15 K,1036.28 ± 2.2 kg/m3
same,speed of sound,309.4 K,1579.6 ± 2.1 m/s
same,mass density,309.4 K,1036.11 ± 2.2 kg/m3
same,speed of sound,309.65 K,1578.8 ± 2.1 m/s
same,mass density,309.65 K,1035.95 ± 2.2 kg/m3
same,speed of sound,309.9 K,1578.2 ± 2.1 m/s
same,mass density,309.9 K,1035.79 ± 2.2 kg/m3
same,speed of sound,310.15 K,1577.5 ± 2.1 m/s
same,mass density,310.15 K,1035.62 ± 2.2 kg/m3
same,speed of sound,310.4 K,1576.7 ± 2.1 m/s
same,mass density,310.4 K,1035.46 ± 2.2 kg/m3
same,speed of sound,310.65 K,1576 ± 2.1 m/s
same,mass density,310.65 K,1035.29 ± 2.2 kg/m3
same,speed of sound,310.91 K,1575.3 ± 2.1 m/s
same,mass density,310.91 K,1035.13 ± 2.2 kg/m3
same,speed of sound,311.16 K,1574.6 ± 2.1 m/s
same,mass density,311.16 K,1034.97 ± 2.2 kg/m3
same,speed of sound,311.4 K,1573.9 ± 2.1 m/s
same,mass density,311.4 K,1034.81 ± 2.2 kg/m3
same,speed of sound,311.65 K,1573.2 ± 2.1 m/s
same,mass density,311.65 K,1034.64 ± 2.2 kg/m3
same,speed of sound,311.91 K,1572.5 ± 2.1 m/s
same,mass density,311.91 K,1034.48 ± 2.2 kg/m3
same,speed of sound,312.16 K,1571.8 ± 2.1 m/s
same,mass density,312.16 K,1034.32 ± 2.2 kg/m3
same,speed of sound,312.41 K,1571.1 ± 2.1 m/s
same,mass density,312.41 K,1034.15 ± 2.2 kg/m3
same,speed of sound,312.66 K,1570.4 ± 2.1 m/s
same,mass density,312.66 K,1033.99 ± 2.2 kg/m3
same,speed of sound,312.91 K,1569.7 ± 2.1 m/s
same,mass density,312.91 K,1033.82 ± 2.2 kg/m3
same,viscosity,313.15 K,75.78 ± 2.7 mPa·s
same,speed of sound,313.16 K,1569 ± 2.1 m/s
same,mass density,313.16 K,1033.66 ± 2.2 kg/m3
same,speed of sound,313.4 K,1568.3 ± 2.1 m/s
same,mass density,313.4 K,1033.49 ± 2.2 kg/m3
same,speed of sound,313.66 K,1567.5 ± 2.1 m/s
same,mass density,313.66 K,1033.33 ± 2.2 kg/m3
same,speed of sound,313.9 K,1566.8 ± 2.1 m/s
same,mass density,313.9 K,1033.16 ± 2.2 kg/m3
same,speed of sound,314.15 K,1566.1 ± 2.1 m/s
same,mass density,314.15 K,1033 ± 2.2 kg/m3
same,speed of sound,314.4 K,1565.4 ± 2.1 m/s
same,mass density,314.4 K,1032.84 ± 2.2 kg/m3
same,speed of sound,314.65 K,1564.7 ± 2.1 m/s
same,mass density,314.65 K,1032.67 ± 2.2 kg/m3
same,speed of sound,314.9 K,1564 ± 2.1 m/s
same,mass density,314.9 K,1032.51 ± 2.2 kg/m3
same,speed of sound,315.15 K,1563.3 ± 2.1 m/s
same,mass density,315.15 K,1032.35 ± 2.2 kg/m3
same,speed of sound,315.41 K,1562.6 ± 2.1 m/s
same,mass density,315.41 K,1032.18 ± 2.2 kg/m3
same,speed of sound,315.65 K,1561.9 ± 2.1 m/s
same,mass density,315.65 K,1032.01 ± 2.2 kg/m3
same,speed of sound,315.91 K,1561.2 ± 2.1 m/s
same,mass density,315.91 K,1031.85 ± 2.2 kg/m3
same,speed of sound,316.16 K,1560.5 ± 2.1 m/s
same,mass density,316.16 K,1031.68 ± 2.2 kg/m3
same,speed of sound,316.41 K,1559.8 ± 2.1 m/s
same,mass density,316.41 K,1031.52 ± 2.2 kg/m3
same,speed of sound,316.66 K,1559.1 ± 2.1 m/s
same,mass density,316.66 K,1031.35 ± 2.2 kg/m3
same,speed of sound,316.91 K,1558.4 ± 2.1 m/s
same,mass density,316.91 K,1031.18 ± 2.2 kg/m3
same,speed of sound,317.16 K,1557.7 ± 2.1 m/s
same,mass density,317.16 K,1031.02 ± 2.2 kg/m3
same,speed of sound,317.4 K,1557 ± 2.1 m/s
same,mass density,317.4 K,1030.86 ± 2.2 kg/m3
same,speed of sound,317.66 K,1556.2 ± 2.1 m/s
same,mass density,317.66 K,1030.69 ± 2.2 kg/m3
same,speed of sound,317.91 K,1555.5 ± 2.1 m/s
same,mass density,317.91 K,1030.53 ± 2.2 kg/m3
same,viscosity,318.15 K,60.1 ± 1.6 mPa·s
same,speed of sound,318.16 K,1554.8 ± 2.1 m/s
same,mass density,318.16 K,1030.36 ± 2.2 kg/m3
same,speed of sound,318.41 K,1554.1 ± 2.1 m/s
same,mass density,318.41 K,1030.19 ± 2.2 kg/m3
same,speed of sound,318.65 K,1553.4 ± 2.1 m/s
same,mass density,318.65 K,1030.03 ± 2.2 kg/m3
same,speed of sound,318.9 K,1552.7 ± 2.1 m/s
same,mass density,318.9 K,1029.87 ± 2.2 kg/m3
same,speed of sound,319.16 K,1552 ± 2.1 m/s
same,mass density,319.16 K,1029.7 ± 2.2 kg/m3
same,speed of sound,319.41 K,1551.3 ± 2.1 m/s
same,mass density,319.41 K,1029.53 ± 2.2 kg/m3
same,speed of sound,319.65 K,1550.6 ± 2.1 m/s
same,mass density,319.65 K,1029.37 ± 2.2 kg/m3
same,speed of sound,319.91 K,1549.9 ± 2.1 m/s
same,mass density,319.91 K,1029.2 ± 2.2 kg/m3
same,speed of sound,320.16 K,1549.2 ± 2.1 m/s
same,mass density,320.16 K,1029.03 ± 2.2 kg/m3
same,speed of sound,320.41 K,1548.4 ± 2.1 m/s
same,mass density,320.41 K,1028.87 ± 2.2 kg/m3
same,speed of sound,320.65 K,1547.7 ± 2.1 m/s
same,mass density,320.65 K,1028.7 ± 2.2 kg/m3
same,speed of sound,320.91 K,1547 ± 2.1 m/s
same,mass density,320.91 K,1028.54 ± 2.2 kg/m3
same,speed of sound,321.15 K,1546.3 ± 2.1 m/s
same,mass density,321.15 K,1028.37 ± 2.2 kg/m3
same,speed of sound,321.41 K,1545.6 ± 2.1 m/s
same,mass density,321.41 K,1028.2 ± 2.2 kg/m3
same,speed of sound,321.66 K,1544.9 ± 2.1 m/s
same,mass density,321.66 K,1028.03 ± 2.2 kg/m3
same,speed of sound,321.9 K,1544.2 ± 2.1 m/s
same,mass density,321.9 K,1027.87 ± 2.2 kg/m3
same,speed of sound,322.15 K,1543.4 ± 2.1 m/s
same,mass density,322.15 K,1027.7 ± 2.2 kg/m3
same,speed of sound,322.41 K,1542.7 ± 2.1 m/s
same,mass density,322.41 K,1027.54 ± 2.2 kg/m3
same,speed of sound,322.65 K,1542 ± 2.1 m/s
same,mass density,322.65 K,1027.37 ± 2.2 kg/m3
same,speed of sound,322.91 K,1541.3 ± 2.1 m/s
same,mass density,322.91 K,1027.2 ± 2.2 kg/m3
